“Also recorded” adds a separate entry of the source.
Legend:
5/6 nephrectomy rats = experiment: 5/6 nephrectomy (Nx) rat study of chronic renal failure; format: in vivo, rat (inbred Lewis); details: 5/6 Nx rats, rhGDF-5 50 μg/kg ip 3 times per week
Description: Both sham and 5/6 Nx performed rats were treated 4 weeks post surgery with different reagents as indicated. The effects of the treatment were analyzed every two weeks through blood and urine sample analysis consisting of hematology, serum and urine chemistry and proteinuria. After 10 weeks of treatment, kidney samples were taken from the right kidney and evaluated using histopathology for glomerulorsclerosis, interstitial fibrosis and tubular degemation. All the data were converted to a weighted ranking system from 1 to 10 and averaged for the 10 weeks. A better efficacy from a treatment receives a higher score and the maximum score is the level for sham group. […]
rhGDF-5 was administrated 3 times per week at 50 μg/kg by ip. […] Effects of these treatments on kidney function was evaluated every two weeks by monitoring clinical observations, body weights, urine volume and duration of collection, and clinical pathology parameters through blood and urine sample analysis (hematology, serum chemistry, and urine chemistry). Residual urine samples were also evaluated for protein levels, beginning on Day 28, by AniLytics, Inc. On Day 70, surviving animals were euthanized and subjected to a limited necropsy, consisting of collection of the right kidney (2 sham groups) or the remaining third of the right kidney (all the Nx groups). […]

UUO induced renal injury = experiment: Unilateral Ureter Obstruction (UUO) model, H&E histology renal injury scoring; format: in vivo, mice (C57BL/6); details: UUO mice, 12 days of treatment, vs vehicle; rhGDF-5 300 μg/kg ip 3x/week, SD282 60 mg/kg gavage twice daily
From the text: The theraputic effects of rhGDF-5 was further tested along with SD282 in Unilateral Ureter Obstruction Model (UUO) in the present invention. Mice were subjected to unilateral ureter obstruction and treatment started on the same day as the UUO surgery. After 12 days of treatment, the obstructed kidneys were harvested for Hematoxylin and Eosin (H&E) staining and RT-PCR analysis. […] CCL2 induces recruitment of monocytes, T lymphocytes, eosinophils, and basophils and is responsible for many inflammatory reactions to disease, and has been linked to recruitment of osteoclast precursors. PDGF plays a role in embryonic development, cell proliferation, cell migration, and angiogenesis. […] The efficacy of rhGDF-5 was further tested along with SD282 in a mouse UUO model. Treatment started on the same day of the UUO, and included rhGDF-5 and SD282. At the end of the 12-day treatment, histology scoring and gene expression analysis was preformed on endpoint measurements. Unilateral Ureter Obstruction Model (“UUO”) was used because it is a commonly used mouse model for progressive tubulointerstitial fibrosis in the kidney. Male C57BL/6 mice were purchased at age 6 to 8 weeks from Jackson Labs (Bar Harbor, Me.). They were housed in an animal facility that was maintained at 25° C. with a 12-hour light-dark cycle. […]

[1] = test system: chemokine ligand 2 (CCL2) gene expression; experiment: UUO model, RT-PCR gene expression analysis of obstructed kidney (CCL2); format: in vivo, mice (C57BL/6); details: UUO mice, 12 days of treatment, vs controls
From the text: (§1) The theraputic effects of rhGDF-5 was further tested along with SD282 in Unilateral Ureter Obstruction Model (UUO) in the present invention. Mice were subjected to unilateral ureter obstruction and treatment started on the same day as the UUO surgery. After 12 days of treatment, the obstructed kidneys were harvested for Hematoxylin and Eosin (H&E) staining and RT-PCR analysis. […] CCL2 induces recruitment of monocytes, T lymphocytes, eosinophils, and basophils and is responsible for many inflammatory reactions to disease, and has been linked to recruitment of osteoclast precursors. PDGF plays a role in embryonic development, cell proliferation, cell migration, and angiogenesis.
(§2) The efficacy of rhGDF-5 was further tested along with SD282 in a mouse UUO model. Treatment started on the same day of the UUO, and included rhGDF-5 and SD282. At the end of the 12-day treatment, histology scoring and gene expression analysis was preformed on endpoint measurements.
(§3) Experimental animals were treated with rhGDF-5, 3 times per week, via ip injection at 300 μg/kg and SD282, twice, daily through gavage at 60 mg/kg dissolved in 0.5% methylcellulose. Control mice received an equal volume of 0.5% methylcellulose vehicle. Treatment dose was selected based on a review of the literature and represented the highest dose that was free of side effects in other experimental studies. […]

[2] = test system: platelet-derived growth factor (PDGF) gene expression; experiment: UUO model, RT-PCR gene expression analysis of obstructed kidney (PDGF); format: in vivo, mice (C57BL/6); details: UUO mice, 12 days of treatment, vs controls
From the text: as §1, §2, §3

diabetic rats = experiment: Streptozotocin-induced diabetic nephropathy rat model; format: in vivo; details: rhGDF-5 300 μg/kg ip 3x per week
Description: The efficacy of the combination therapy was tested in a diabetic nephropathy rat model.
Diabetic condition in the animals was induced for 1 week by a single i.v. injection of Streptozotocin. Subsequently, the animals were treated for 14 weeks with or without 300 μg/kg rhGDF-5 (i.p., 3× per week), 10 mg/kg of Enalapril (gavage, once daily), or a combination of the two.
Blood glucose measurements and subcutaneous insulin administrations (as necessary) were carried out thrice weekly to maintain a glucose level between 280 and 400 mg/dL. Urine samples were collected every two weeks; blood samples collected every four weeks for measuring level of urine microalbumin, serum creatinine, blood urea nitrogen, and urine creatinine. On week fourteen, a final set of samples was collected; then the animals were euthanized and subjected to a limited necropsy involving the collection of the kidneys. One kidney from each animal was flash frozen for gene expression analysis as needed and the other preserved in 10% neutral buffered formalin, after which it was examined microscopically.
Histological examination was performed on the kidneys. […] Slides were evaluated on the basis of morphologic changes according to the following grading scheme: 0=within normal limits; 1=minimal; 2=mild; 3=moderate. All microscopic slides were evaluated and gross and microscopic findings were reported.

rhGDF-5: recombinant human Growth and Differentiation factor-5, a protein belonging to the TGF-β superfamily (morphogen)
blood urea nitrogen levels (5/6 nephrectomy rats): some effect on reducing blood urea nitrogen levels | renal injury score (histology scoring, H&E) (UUO induced renal injury): reduced renal structural damage; also recorded: reduced renal injury score | CCL2 gene expression [1]: decreased expression of CCL2; also recorded: prevents chemokine ligand 2 (CCL2) | PDGF gene expression [2]: decreased expression; also recorded: prevents | urine microalbumin / protein level in urine (diabetic rats): comparable efficacy on reducing urine micro albumine level; also recorded: comparable effect on reducing protein level in urine
